# Source: patent publication US20050107289A1, “Anti-microbial peptides and compositions” (priority 2001, published 2005)
# Where two headings read alike, the source gives them in different places. Non-standard residues stand in square brackets, D forms with d. Residues, ends and D or L forms follow the SMILES beside them.
# Tests used:
# [1] = tested on: murine red blood cells; test: Red blood cell hemolysis; format: cell-based, mouse
# In short: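 Washed murine erythrocytes at 5% in saline with 10% FBS were exposed to serial peptide dilutions for 30 min at 37° C. Supernatant absorbance at 560 nm was read, with saline as 0% and 1% Triton X-100 as 100% hemolysis.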
# [2] = tested on: S. aureus (MRSA) ATCC 33591; format: cell-based, Staphylococcus aureus; details: Table 9
# In short: (§1)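 MICs come from NCCLS-style (M7-A4) dilution testing, mostly microdilution, with an inoculum near 2.5×10^5 cfu/ml from 4000-fold-diluted overnight cultures. Peptide series were 2-fold steps spanning roughly 400–2 μg/ml, prepared in 9% aqueous sucrose with 5% DMSO.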
# [3] = tested on: vancomycin-resistant Enterococus faecalis (VRE)(ATCC 51575); format: cell-based, Enterococcus faecalis; design: key to VRE (in vitro activity): peptide concentration in μg/ml (broth dilution assay); details: Table 9
# In short: as §1
# [4] = media b: cation adjusted Meuller Hinton broth (MHBII)
# [5] = media c: Brain Heart Infusion (BHI)
# [6] = media a: anti-microbial media-3 (AM-3)
SMILES,RBC Hemolysis (HD50) [1],"MRSA (in vitro activity) [2, 6]",VRE (in vitro activity) ([3]; media a: AM-3),further results
"CC(C)C[C@H]1NC(=O)[C@H](CCCCN)NC(=O)[C@@H](CO)NC(=O)[C@H](CCCCN)NC(=O)[C@@H](CC(C)C)NC(=O)[C@H](Cc2c[nH]cn2)NC(=O)[C@@H](CC(C)C)NC(=O)[C@H](Cc2c[nH]cn2)NC1=O [SEQ ID NO:103, [KSKLHLHL]] (cyclo(K[dS]K[dL]H[dL]H[dL]))",>320,,,"MRSA (in vitro activity) [2, 4]: >320; VRE (in vitro activity) [3, 5]: >320"
"CC(C)C[C@H]1NC(=O)[C@H](CCCCN)NC(=O)[C@@H](CO)NC(=O)[C@H](CCCCN)NC(=O)[C@@H](CC(C)C)NC(=O)[C@H](CCC(N)=O)NC(=O)[C@@H](CC(C)C)NC(=O)[C@H](CCC(N)=O)NC1=O [SEQ ID NO:104, [KSKLQLQL]] (cyclo(K[dS]K[dL]Q[dL]Q[dL]))",>200,,,"MRSA (in vitro activity) [2, 4]: >200; VRE (in vitro activity) [3, 5]: >200"
"CC(C)C[C@H]1NC(=O)[C@H](CCCCN)NC(=O)[C@@H](CO)NC(=O)[C@H](CCCCN)NC(=O)[C@@H](CC(C)C)NC(=O)[C@H](CCCNC(=N)N)NC(=O)[C@@H](CC(C)C)NC(=O)[C@H](CCCNC(=N)N)NC1=O [SEQ ID NO:105, [KSKLRLRL]] (cyclo(K[dL]R[dL]R[dL]K[dS]))",>240,,,"MRSA (in vitro activity) ([2]; media b: cation adjusted Meuller Hinton broth (MHBII), listed as [KSKLRLRL] (105)): >240; VRE (in vitro activity) ([3]; media c: Brain Heart Infusion (BHI), listed as [KSKLRLRL] (105)): >240"
"CC(C)C[C@H]1NC(=O)[C@H](CCCCN)NC(=O)[C@@H](CO)NC(=O)[C@H](CCCCN)NC(=O)[C@@H](CC(C)C)NC(=O)[C@H](CCCNC(=N)N)NC(=O)[C@@H](CC(C)C)NC(=O)[C@H](CCCNC(=N)N)NC1=O [SEQ ID NO:106, [KSKLRLRL]] (cyclo(K[dL]R[dL]R[dL]K[dS]))",>400,,,"MRSA (in vitro activity) ([2]; media b: cation adjusted Meuller Hinton broth (MHBII), listed as [KSKLRLRL] (106)): >400; VRE (in vitro activity) ([3]; media c: Brain Heart Infusion (BHI), listed as [KSKLRLRL] (106)): >400"
"CC(C)C[C@@H]1NC(=O)[C@@H](Cc2c[nH]c3ccccc23)NC(=O)[C@H](CO)NC(=O)[C@@H](Cc2c[nH]c3ccccc23)NC(=O)[C@H](CCCCN)NC(=O)[C@@H](Cc2c[nH]c3ccccc23)NC(=O)[C@H](CCCCN)NC(=O)[C@@H](Cc2c[nH]c3ccccc23)NC1=O [SEQ ID NO:107, [KWKWSWLW]] (cyclo(K[dW]K[dW]S[dW]L[dW]))",150,,,"MRSA (in vitro activity) [2, 4]: 12; VRE (in vitro activity) [3, 5]: 12"
"CC[C@@H](C)[C@H]1NC(=O)[C@H](C)NC(=O)[C@@H](Cc2c[nH]c3ccccc23)NC(=O)[C@H](C(C)C)NC(=O)[C@@H](CCCNC(=N)N)NC(=O)[C@H](CCCCN)NC1=O [SEQ ID NO:113, [KRVWAI]] (cyclo(K[dR]V[dW]A[dI]))",>200,,,"MRSA (in vitro activity) [2, 4]: >200; VRE (in vitro activity) [3, 5]: >200"
"CC[C@H](C)[C@@H]1NC(=O)[C@@H](Cc2c[nH]c3ccccc23)NC(=O)[C@H](CCCCN)NC(=O)[C@@H](CCCNC(=N)N)NC(=O)[C@H](C)NC(=O)[C@@H](CC(C)C)NC1=O [SEQ ID NO:114, [KWILAR]] (cyclo(K[dW]I[dL]A[dR]))",>200,,,"MRSA (in vitro activity) [2, 4]: 50; VRE (in vitro activity) [3, 5]: >200"
"CC(C)C[C@@H]1NC(=O)[C@@H](Cc2c[nH]c3ccccc23)NC(=O)[C@H](CCC(N)=O)NC(=O)[C@@H](Cc2c[nH]c3ccccc23)NC(=O)[C@H](CCCCN)NC(=O)[C@@H](Cc2c[nH]c3ccccc23)NC1=O [SEQ ID NO:116, [KWQWLW]] (cyclo(K[dW]Q[dW]L[dW]))",>16,12,12,
"CC(C)C[C@@H]1NC(=O)[C@@H](Cc2c[nH]c3ccccc23)NC(=O)[C@H](CCCCN)NC(=O)[C@@H](CCC(=O)O)NC(=O)[C@H](CCCCN)NC(=O)[C@@H](Cc2c[nH]c3ccccc23)NC1=O [SEQ ID NO:117, [KEKWLW]] (cyclo(K[dE]K[dW]L[dW]))",>121,101,91,
"CC(C)C[C@@H]1NC(=O)[C@@H](Cc2c[nH]c3ccccc23)NC(=O)[C@H](CCC(N)=O)NC(=O)[C@@H](CCC(=O)O)NC(=O)[C@H](CCCCN)NC(=O)[C@@H](Cc2c[nH]c3ccccc23)NC1=O [SEQ ID NO:118, [KEQWLW]] (cyclo(K[dE]Q[dW]L[dW]))",>115,>115,>115,
"CC(C)C[C@@H]1NC(=O)[C@@H](Cc2c[nH]c3ccccc23)NC(=O)[C@H](CCCCN)NC(=O)[C@@H](Cc2c[nH]cn2)NC(=O)[C@H](CCCCN)NC(=O)[C@@H](Cc2c[nH]c3ccccc23)NC1=O [SEQ ID NO:119, [KHKWLW]] (cyclo(K[dH]K[dW]L[dW]))",>115,12,60,
"CC(C)C[C@@H]1NC(=O)[C@@H](Cc2c[nH]c3ccccc23)NC(=O)[C@H](CCC(N)=O)NC(=O)[C@@H](Cc2c[nH]cn2)NC(=O)[C@H](CCCCN)NC(=O)[C@@H](Cc2c[nH]c3ccccc23)NC1=O [SEQ ID NO:120, [KHQWLW]] (cyclo(K[dH]Q[dW]L[dW]))",115.0,43,57,
"CC(C)C[C@@H]1NC(=O)[C@@H](Cc2c[nH]c3ccccc23)NC(=O)[C@H](CCCCN)NC(=O)[C@@H](CCCCN)NC(=O)[C@H](CCCCN)NC(=O)[C@@H](Cc2c[nH]c3ccccc23)NC1=O [SEQ ID NO:121, [KKKWLW]] (cyclo(K[dK]K[dW]L[dW]))",>111,23,51,
"CC(C)C[C@@H]1NC(=O)[C@@H](Cc2c[nH]c3ccccc23)NC(=O)[C@H](CCC(N)=O)NC(=O)[C@@H](CCCCN)NC(=O)[C@H](CCCCN)NC(=O)[C@@H](Cc2c[nH]c3ccccc23)NC1=O [SEQ ID NO:122, [KKQWLW]] (cyclo(K[dK]Q[dW]L[dW]))",>215,27,81,
"CC(C)C[C@@H]1NC(=O)[C@@H](Cc2c[nH]c3ccccc23)NC(=O)[C@H](CCC(N)=O)NC(=O)[C@@H](CC(N)=O)NC(=O)[C@H](CCCCN)NC(=O)[C@@H](Cc2c[nH]c3ccccc23)NC1=O [SEQ ID NO:123, [KNQWLW]] (cyclo(K[dN]Q[dW]L[dW]))",>74,>74,>74,
"CC(C)C[C@@H]1NC(=O)[C@@H](Cc2c[nH]c3ccccc23)NC(=O)[C@H](CCC(N)=O)NC(=O)[C@@H](CCC(N)=O)NC(=O)[C@H](CCCCN)NC(=O)[C@@H](Cc2c[nH]c3ccccc23)NC1=O [SEQ ID NO:124, [KQQWLW]] (cyclo(K[dQ]Q[dW]L[dW]))",>35,>35,>35,
"CC(C)C[C@@H]1NC(=O)[C@@H](Cc2c[nH]c3ccccc23)NC(=O)[C@H](CCCCN)NC(=O)[C@@H](CCCNC(=N)N)NC(=O)[C@H](CCCCN)NC(=O)[C@@H](Cc2c[nH]c3ccccc23)NC1=O [SEQ ID NO:125, [KRKWLW]] (cyclo(K[dR]K[dW]L[dW]))",>174,9,33,
"CC(C)C[C@@H]1NC(=O)[C@@H](Cc2c[nH]c3ccccc23)NC(=O)[C@H](CCCCN)NC(=O)[C@@H](CO)NC(=O)[C@H](CCCCN)NC(=O)[C@@H](Cc2c[nH]c3ccccc23)NC1=O [SEQ ID NO:126, [KSKWLW]] (cyclo(K[dS]K[dW]L[dW]))",>65,19,38,
"CC(C)[C@H]1NC(=O)[C@H](Cc2ccc(O)cc2)NC(=O)[C@@H](CO)NC(=O)[C@H](CCCCN)NC(=O)[C@@H](CO)NC(=O)[C@H](Cc2c[nH]c3ccccc23)NC1=O [SEQ ID NO:127, [KSYVWS]] (cyclo(K[dS]Y[dV]W[dS]))",>200,,,"MRSA (in vitro activity) [2, 4]: >200; VRE (in vitro activity) [3, 5]: >200"
"CC(C)C[C@@H]1NC(=O)[C@@H](Cc2c[nH]c3ccccc23)NC(=O)[C@H](CCCCN)NC(=O)[C@@H](Cc2ccccc2)NC(=O)[C@H](CCCCN)NC(=O)[C@@H](Cc2c[nH]c3ccccc23)NC1=O [SEQ ID NO:128, [KFKWLW]] (cyclo(K[dF]K[dW]L[dW]))",>61,14,43,
"CC(C)C[C@@H]1NC(=O)[C@@H](Cc2c[nH]c3ccccc23)NC(=O)[C@H](CCC(N)=O)NC(=O)[C@@H](Cc2ccccc2)NC(=O)[C@H](CCCCN)NC(=O)[C@@H](Cc2c[nH]c3ccccc23)NC1=O [SEQ ID NO:129, [KFQWLW]] (cyclo(K[dF]Q[dW]L[dW]))",>81,25,10,
